For one assay, the target named is T1, hP2X2/3H (Homo sapiens, UniProt P56373+Q9UBL9).
T1 construct: expressed in transfected cells; host or cells: e.g. HEK293 or 1321N1
T1 sequence (Q9UBL9 1-471): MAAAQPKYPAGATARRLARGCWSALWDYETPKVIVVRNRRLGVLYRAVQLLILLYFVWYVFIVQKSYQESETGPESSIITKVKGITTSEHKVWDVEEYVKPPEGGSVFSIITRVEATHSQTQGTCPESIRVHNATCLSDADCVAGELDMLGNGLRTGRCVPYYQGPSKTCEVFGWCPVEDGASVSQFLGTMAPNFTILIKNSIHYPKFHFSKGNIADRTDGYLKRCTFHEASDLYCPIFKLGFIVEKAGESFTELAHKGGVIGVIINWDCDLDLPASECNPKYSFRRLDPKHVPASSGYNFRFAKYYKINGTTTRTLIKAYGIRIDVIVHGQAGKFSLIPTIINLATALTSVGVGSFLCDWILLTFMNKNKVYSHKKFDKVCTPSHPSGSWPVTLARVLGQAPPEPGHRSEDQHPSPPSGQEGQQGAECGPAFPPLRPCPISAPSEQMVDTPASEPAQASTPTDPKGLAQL
T1 sequence (P56373 1-397): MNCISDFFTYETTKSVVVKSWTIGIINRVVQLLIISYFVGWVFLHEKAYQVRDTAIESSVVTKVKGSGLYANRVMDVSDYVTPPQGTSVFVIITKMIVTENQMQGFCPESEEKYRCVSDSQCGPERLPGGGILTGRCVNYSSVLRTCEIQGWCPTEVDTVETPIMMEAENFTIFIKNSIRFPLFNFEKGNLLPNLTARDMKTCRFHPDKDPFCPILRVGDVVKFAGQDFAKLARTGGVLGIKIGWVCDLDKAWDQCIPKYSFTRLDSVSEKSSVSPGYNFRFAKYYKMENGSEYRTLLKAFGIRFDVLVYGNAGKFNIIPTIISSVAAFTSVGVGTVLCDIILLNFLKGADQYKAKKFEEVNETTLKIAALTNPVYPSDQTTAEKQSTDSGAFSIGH
As to the kind of experiment: Calcium uptake assay (P2X antagonist assay), P2X2/3 heteromer. The assay is classed as cell-based. Conditions: calcium uptake assay, hP2X2/3H; read-out: IC50 hP2X2/3H (nM), Ca Influx. Summed up: (§1)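 Stably or transiently transfected HEK293 or 1321N1 cells; the heteromer is made by adding P2X3 to a P2X2-stable line, with heteromer function isolated pharmacologically. The peak-minus-baseline FLIPR calcium signal gives % inhibition and a 4-parameter-logistic IC50.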

In the next assay the target is T2, hP2X3 (Homo sapiens, UniProt P56373).
T2 construct: expressed in transfected cells; host or cells: e.g. HEK293 or 1321N1
T2 sequence (P56373 1-397): T1 sequence (P56373 1-397)
As to the kind of experiment: Calcium uptake assay (P2X antagonist assay), P2X3 homomer. In kind it is cell-based. Particulars: calcium uptake assay, hP2X3; read-out: IC50 hP2X3 (nM), Ca Influx. Put shortly: as §1

For `Cc1ccc(-c2cc(C(=O)NCc3ccc(C)nc3)cc(C(=O)N3CCNC(C)C3)c2)cc1` (centres unmarked) [Compound 126], the IC50 is 100 to 500 nM on hP2X2/3H and under 100 nM on hP2X3.

Consider `Cc1ccc(-c2cc(C(=O)NCc3ccc(C)nc3)cc(C(=O)N3CCN(c4nccs4)CC3)c2)cc1` [Compound 127, 4′-Methyl-N-((6-methylpyridin-3-yl)methyl)-5-(4-(thiazol-2-yl)piperazine-1-carbonyl)biphenyl-3-carboxamide], for which the IC50 on hP2X2/3H is 100 to 500 nM; on hP2X3, under 100 nM.

Turning to `Cc1ccc(-c2cc(C(=O)NCc3ccc(C)nc3)cc(C(=O)N3CCN4CCCC4C3)c2)cc1` (centres unmarked) [Compound 128], the IC50 at hP2X2/3H and at hP2X3 was under 100 nM in each case.

Consider `Cc1ccc(-c2cc(C(=O)NCc3ncc(C(F)(F)F)cc3Cl)cc(C(=O)N3CC(O)C3)c2)cc1` [Compound 129], for which the IC50 at hP2X2/3H and at hP2X3 was under 100 nM in each case.

Take `Cc1ccc(-c2cc(C(=O)NCc3ccc(C(F)(F)F)nc3)cc(C(=O)N3CC(O)C3)c2)cc1` [Compound 130, 5-(3-Hydroxyazetidine-1-carbonyl)-4′-methyl-N-((6-(trifluoromethyl)pyridin-3-yl)methyl)biphenyl-3-carboxamide]: the IC50 on hP2X2/3H and at hP2X3 was under 100 nM in each case.

`Cc1ccc(-c2cc(C(=O)NCc3ccc(Cl)nc3)cc(C(=O)N3CC(O)C3)c2)cc1` [Compound 131]: the IC50 on hP2X2/3H and on hP2X3 was under 100 nM each time.

As to `Cc1ccc(-c2cc(C(=O)NCc3ccc(C)nc3)cc(C(=O)N3CC(O)C3)c2)cc1` [Compound 132], the IC50 on hP2X2/3H and on hP2X3 was under 100 nM throughout.

As for `COc1ncc(CNC(=O)c2cc(C(=O)N3CC(O)C3)cc(-c3ccc(C)cc3)c2)cn1` [Compound 133], the IC50 is 100 to 500 nM on hP2X2/3H and under 100 nM at hP2X3.

With `Cc1ccc(-c2cc(C(=O)NCc3ncc(Cl)cc3Cl)cc(C(=O)N3CC(O)C3)c2)cc1` [Compound 134], the IC50 on hP2X2/3H and at hP2X3 was under 100 nM each time.

As for `Cc1ccc(-c2cc(C(=O)N[C@H](C)c3ccc(C(F)(F)F)nc3)cc(C(=O)N3CCCC3)c2)nc1` [Compound 135], the IC50 on hP2X2/3H and on hP2X3 was under 100 nM in each case.

On to `Cc1ccc(CNC(=O)c2cc(-c3ccc(Cl)c(F)c3)cc(S(C)(=O)=O)c2)cn1` [Compound 136], for which the IC50 at hP2X2/3H was over 1000 nM; at hP2X3 it was 501 to 1000 nM.

For `Cc1ccc(CNC(=O)c2cc(-c3ccc(C)c(F)c3)cc(S(C)(=O)=O)c2)cn1` [Compound 137], the IC50 on hP2X2/3H and at hP2X3 was 100 to 500 nM in each case.

In the case of `Cc1ccc(CNC(=O)c2cc(-c3ccc(Cl)cc3)cc(S(C)(=O)=O)c2)cn1` [Compound 138], the IC50 on hP2X2/3H and at hP2X3 was 100 to 500 nM each time.

As to `Cc1ccc(CNC(=O)c2cc(-c3ccc(Cl)c(C(F)(F)F)c3)cc(S(C)(=O)=O)c2)cn1` [Compound 139], the IC50 at hP2X2/3H and on hP2X3 was over 1000 nM in each case.

With `Cc1ccc(-c2cc(C(=O)NCc3ccc(C)nc3)cc(C(=O)N3C[C@H]4CNC[C@H]4C3)c2)cc1` [Compound 140, 4′-Methyl-N-((6-methylpyridin-3-yl)methyl)-5-((3aR,6aS)-octahydropyrrolo[3,4-c]pyrrole-2-carbonyl)biphenyl-3-carboxamide], the IC50 on hP2X2/3H and on hP2X3 was 100 to 500 nM throughout.

Consider `Cc1ccc(-c2cc(C(=O)NCc3ccc(C)nc3)cc(C(=O)N3CC4CN(C)CC4C3)c2)cc1` (centres unmarked) [Compound 141], for which the figures for the IC50 on hP2X2/3H and at hP2X3 were 100 to 500 nM and under 100 nM, respectively.

Regarding `Cc1ccc(-c2cc(C(=O)NCc3ccc(C)nc3)cc(C(=O)N3CC[C@H](N(C)C)C3)c2)cc1` [Compound 142], the figures for the IC50 on hP2X2/3H and at hP2X3 were 100 to 500 nM and under 100 nM, respectively.

Consider `Cc1ccc(-c2cc(C(=O)NCc3ccc(C)nc3)cc(C(=O)N3CC[C@@H](N(C)C)C3)c2)cc1` [Compound 143], for which the IC50 at hP2X2/3H was 501 to 1000 nM; at hP2X3, 100 to 500 nM.

With `COc1ccc(CNC(=O)c2cc(-c3ccc(C)cc3)cc(S(C)(=O)=O)c2)cn1` [Compound 144], the figures for the IC50 on hP2X2/3H and on hP2X3 were under 100 nM and 100 to 500 nM, respectively.

Values taken from patent US8946439B2, “Amide compounds, compositions and uses thereof” (Evotec AG, priority 2008, dated 2015).
